Laboratory results: US4207326A, “Antimicrobial quaternary pyrazole derivatives” (Cilag-Chemie A.G., priority 1979, dated 1980)

Each compound was assayed on E. coli (assay: Antibacterial activity: Minimum Inhibitory Concentration). Details: Escherichia coli, Day 1, 37° C., 24 hours.
Type: cell-based, Escherichia coli ATCC 8739
Method: (§1) The antimicrobial activity was determined by inoculation of the test microorganism into suitable growth media containing solutions of the compounds at concentrations of 100, 50, 10, 5, 1.0, 0.5 and 0.1 μg/ml. The reference antibiotics used were Gentamicin for the antibacterial tests and Amphotericin B for the antimycotic and antifungal tests. After incubation the antimicrobial activity was recorded as the Minimal Inhibitory Concentration (M.I.C.), i.e., the lowest concentration preventing macroscopically visible growth, for each test compound against each organism.
(§2) An initial solution of each formula (I) compound to be tested in sterile distilled water was prepared at a concentration of 1000 μg/ml. With appropriate dilutions using sterile distilled water, additional solutions were prepared at concentrations of 500, 100, 50, 10, 5 and 1 μg/ml.
(§3) They were cultured and maintained on Tryptone Soy Agar (Oxoid CM 131), with the addition of 10% horse blood for the S. pyogenes.
(§4) To prepare the organisms as inocula for the test, slopes of this medium were streaked with the organisms and incubated at 37° C. for 24 hours. 4.5 Ml volumes of Brian-Heart Infusion Broth (Oxoid CM 225) were then inoculated with a platinum loop from the agar slope cultures and incubated for 24 hours at 37° C. The final inocula were then prepared by adding 0.1 ml aliquots of the Brain-Heart Infusion Broth cultures to 100 ml volumes of sterile physiological saline.
(§5) (a) For the test on each of the bacterial strains and each of the test and reference compounds, a series of 8 tubes containing 4.5 ml volumes of Brain-Heart Infusion Broth (Oxoid CM 225) were prepared. To 7 of these were added 0.5 ml volumes of the final solutions of the test compouns, giving final concentrations in the broths of 100, 50, 10, 5, 1.0, 0.5 and 0.1 μg/ml. To the eighth tube in each series was added 0.5 ml of the solvent used and diluted as for the preparation of the 1000 μg/ml solution of the compound. This tube was used as the growth control. The tubes were inoculated with 0.02 ml aliquots of the inocula prepared in accordance with "(a) Bacteria" above, and incubated at 37° C. for 24 hours. The tubes were then examined for evidence of bacterial growth as shown by turbidity of the medium and the lowest concentration of the test compound which prevented bacterial growth was recorded as the Minimal Inhibitory Concentration. This test procedure was carried out on two separate days.
Work on `CCCCCCCCCCCCCCCCn1ccc[n+]1C` [Example 3-D, 1-hexadecyl-2-methyl-pyrazolium methosulfate] yielded an MIC of 10 µg/mL. With `CCCCCCCCCCCCn1ccc[n+]1C` [Example 3-E, 1-dodecyl-2-methy-pyrazolium methosulfate] the MIC was 50 µg/mL.

Same assay, conditions: Escherichia coli, Day 2, 37° C., 24 hours
For `CCCCCCCCCCCCCCCCn1ccc[n+]1C` [Example 3-D, 1-hexadecyl-2-methyl-pyrazolium methosulfate], the MIC was 5 µg/mL. Work on `CCCCCCCCCCCCn1ccc[n+]1C` [Example 3-E, 1-dodecyl-2-methy-pyrazolium methosulfate] yielded an MIC of 50 µg/mL.

The compounds below were run on P. mirabilis in the same assay as above. Details: Proteus mirabilis; P. mirabilis, Day 1; 37° C., 24 hours; read-out: Minimum Inhibitory Concentration.
Type: cell-based, Proteus mirabilis NCTC 8559
Method: as §1, §2, §3, §4, §5
With `CCCCCCCCCCCCCCCCn1ccc[n+]1C` [Example 3-D, 1-hexadecyl-2-methyl-pyrazolium methosulfate] the MIC was 10 µg/mL. Work on `CCCCCCCCCCCCn1ccc[n+]1C` [Example 3-E, 1-dodecyl-2-methy-pyrazolium methosulfate] yielded an MIC of 100 µg/mL.

Same assay, conditions: Proteus mirabilis; P. mirabilis, Day 2; 37° C., 24 hours; read-out: Minimum Inhibitory Concentration
For `CCCCCCCCCCCCCCCCn1ccc[n+]1C` [Example 3-D, 1-hexadecyl-2-methyl-pyrazolium methosulfate], the MIC was 50 µg/mL. With `CCCCCCCCCCCCn1ccc[n+]1C` [Example 3-E, 1-dodecyl-2-methy-pyrazolium methosulfate] the MIC was 100 µg/mL.

These compounds were tested on C. tropicalis (assay: Antimycotic activity: Minimum Inhibitory Concentration). Details: Candida tropicalis, pH 5.5, C. tropicalis, Day 1; pH 5.5, 37° C., 72 hours; read-out: Minimum Inhibitory Concentrations.
Type: cell-based, Candida tropicalis NCPF 3111
Method: as §1, §2
The two species, C. albicans and C. tropicalis, were maintained on Sabouraud-Dextrose Agar (Oxoid CM41) and cultures for the preparation of the inoculum were incubated on this agar at 37° C. for 48 hours. 4.5 Ml volumes of citric acid-phosphate buffer pH 5.5 plus Yeast-Nitrogen Base (Difco 0392-15) were then inoculated from the agar cultures and incubated at 37° C. for 48 hours. 0.1 Ml aliquots of these cultures were then added to 100 ml volumes of sterile physiological saline to give the final inocula.
(b) For the tests on each of the C. albicans, C. tropicalis and C. neoformans strains and each of the test and reference compounds, a series of 8 tubes containing 4.5 ml volumes of citric acid-phosphate buffer pH 5.5 plus Yeast-Nitrogen Base (Difco 0392-15) were prepared. To 7 of these were added 0.5 ml volumes of the final solutions of the test compounds, giving final concentrations in the broths of 100, 50, 10, 5, 1.0, 0.5 and 0.1 μg/ml. To the eighth tube in each series was added 0.5 ml of the solvent used and diluted as for the preparation of the 1000 μg/ml solution of the compound. This tube was used as the growth control. The tubes were then inoculated with 0.1 ml aliquots of the inocula prepared as in "(b) Fungi" above. The tubes inoculated with the C. albicans and C. tropicalis were inoculated at 37° C. for 72 hours and the tubes inoculated with the C. neoformans straim were incubated at 30° C. for 72 hours. […] The tubes were then examined for evidence of growth as shown by turbidity of the medium and the lowest concentration of the test compound which prevented fungal growth was recorded as the Minimal Inhibitory Concentration. This test procedure was carried out on two separate days.
`CCCCCCCCCCCCCCCCn1ccc[n+]1C` [Example 3-D, 1-hexadecyl-2-methyl-pyrazolium methosulfate] showed an MIC of 0.5 µg/mL. In the case of `CCCCCCCCCCCCn1ccc[n+]1C` [Example 3-E, 1-dodecyl-2-methy-pyrazolium methosulfate], the MIC was 5 µg/mL.

Same assay, conditions: Candida tropicalis, pH 5.5, C. tropicalis, Day 2; pH 5.5, 37° C., 72 hours; read-out: Minimum Inhibitory Concentrations
Work on `CCCCCCCCCCCCCCCCn1ccc[n+]1C` [Example 3-D, 1-hexadecyl-2-methyl-pyrazolium methosulfate] yielded an MIC of 0.5 µg/mL. With `CCCCCCCCCCCCn1ccc[n+]1C` [Example 3-E, 1-dodecyl-2-methy-pyrazolium methosulfate] the MIC was 1 µg/mL.

What follows are compounds tested on T. mentagrophytes (assay: Antifungal activity: Minimum Inhibitory Concentration). Details: Trichophyton mentagrophytes, T. mentagrophytes, Day 1; 27° C., one week; read-out: Minimum Inhibitory Concentration.
Type: cell-based, Trichophyton mentagrophytes NCPF 410
Method: as §1, §2
T. mentagrophytes NCPF 410
(§6) The A. corymbifera, A. fumigatus, S. schenkii, T. rubrum, T. mentagrophytes, M. canis and P. verrucosa strains were all maintained on Sabouraud-Dextrose Agar (Oxoid CM 41) by incubating for 14 days at 27° C. To prepare the inocula 30 ml volumes of Sabouraud-Liquid medium (Oxoid CM 147) were inoculated from the agar cultures and incubated at 27° C. until heavy uniform growth resulted. The mycelial growth was then broken up by shaking with glass beads.
(§7) 1 Ml aliquots were removed from each of the cultures for the purpose of making viable counts and the cultures were then held at 4° C. The viable counts were made by preparing serial ten-fold dilutions of the cultures in sterile physiological saline and spreading on plates of Sabouraud-Dextrose Agar (Oxoid CM 41) which were then incubated at 27° C. for 14 days. When the viable counts had confirmed that each of the inocula contained approximately 10^6 colony forming units (C.F.U.) per ml the cultures were withdrawn from the refrigerator and used as the inocula for the tests.
(§8) (c) For the tests on each of the remaining seven strains and each of the test and reference compounds, a series of 8 tubes containing 4.5 ml volumes of Sabouraud-Liquid Medium (Oxoid CM 147) were prepared. To 7 of these were added 0.5 ml volumes of the final solutions of the test compounds, giving final concentrations in the broths of 100, 50, 10, 5, 1.0, 0.5 and 0.1 μg/ml. To the eighth tube in each series was added 0.5 ml of the solvent used and diluted as for the preparation of the 500 μg/ml solution of the compound. This tube was used as a growth control. The tubes were then inoculated with 0.1 ml aliquots of the inocula prepared as in "(b) Fungi" above. The tubes were then incubated at 27° C. with continuous shaking for a period of one week. The tubes were then examined for evidence of growth as shown by the presence of mycelial growth in the medium and the lowest concentration of the test compound which prevented fungal growth was recorded as the Minimal Inhibitory Concentration. This test procedure was carried out on two separate days.
For `CCCCCCCCCCCCCCCCn1ccc[n+]1C` [Example 3-D, 1-hexadecyl-2-methyl-pyrazolium methosulfate], the MIC was 1 µg/mL. In the case of `CCCCCCCCCCCCn1ccc[n+]1C` [Example 3-E, 1-dodecyl-2-methy-pyrazolium methosulfate], the MIC was 1 µg/mL.

Same assay, conditions: Trichophyton mentagrophytes, T. mentagrophytes, Day 2; 27° C., one week; read-out: Minimum Inhibitory Concentration
`CCCCCCCCCCCCCCCCn1ccc[n+]1C` [Example 3-D, 1-hexadecyl-2-methyl-pyrazolium methosulfate] showed an MIC of 1 µg/mL. `CCCCCCCCCCCCn1ccc[n+]1C` [Example 3-E, 1-dodecyl-2-methy-pyrazolium methosulfate] showed an MIC of 5 µg/mL.

Each compound was assayed on M. canis in the same assay as above. Details: Microsporum canis, M. canis, Day 1; 27° C., one week; read-out: Minimum Inhibitory Concentration.
Type: cell-based, Microsporum canis NCPF 351
Method: as §1, §2, §6, §7, §8
`CCCCCCCCCCCCCCCCn1ccc[n+]1C` [Example 3-D, 1-hexadecyl-2-methyl-pyrazolium methosulfate] was tested, and the MIC was 5 µg/mL. Work on `CCCCCCCCCCCCn1ccc[n+]1C` [Example 3-E, 1-dodecyl-2-methy-pyrazolium methosulfate] yielded an MIC of 10 µg/mL.

Same assay, conditions: Microsporum canis, M. canis, Day 2; 27° C., one week; read-out: Minimum Inhibitory Concentration
`CCCCCCCCCCCCCCCCn1ccc[n+]1C` [Example 3-D, 1-hexadecyl-2-methyl-pyrazolium methosulfate] gave an MIC of 5 µg/mL. `CCCCCCCCCCCCn1ccc[n+]1C` [Example 3-E, 1-dodecyl-2-methy-pyrazolium methosulfate] gave an MIC of 10 µg/mL.

Each compound was assayed on P. verrucosa in the same assay as above. Details: Phialophora verrucosa, P. verrucosa, Day 1; 27° C., one week; read-out: Minimum Inhibitory Concentration.
Type: cell-based, Phialophore verrucosa NCPF 1119
Method: as §1, §2, §6, §7, §8
Work on `CCCCCCCCCCCCCCCCn1ccc[n+]1C` [Example 3-D, 1-hexadecyl-2-methyl-pyrazolium methosulfate] yielded an MIC of 5 µg/mL. `CCCCCCCCCCCCn1ccc[n+]1C` [Example 3-E, 1-dodecyl-2-methy-pyrazolium methosulfate] was tested, and the MIC was 5 µg/mL.

Same assay, conditions: Phialophora verrucosa, P. verrucosa, Day 2; 27° C., one week; read-out: Minimum Inhibitory Concentration
For `CCCCCCCCCCCCCCCCn1ccc[n+]1C` [Example 3-D, 1-hexadecyl-2-methyl-pyrazolium methosulfate], the MIC was 5 µg/mL. `CCCCCCCCCCCCn1ccc[n+]1C` [Example 3-E, 1-dodecyl-2-methy-pyrazolium methosulfate] gave an MIC of 10 µg/mL.
